How the values were obtained:
MCF-7 = test: MTT cytotoxicity test, MCF-7 (growth inhibition); assay type: cell-based; conditions: Homo sapiens, MCF7; 1 μg/ml; MCF-7 (breast); relative to the controls; read-out: Percentage inhibition of growth MCF-7
Procedure: (§1) Thus, the cytotoxic activity of the products was evaluated using the MTT test [T. Mosman, J. Immunol. […] The amount of formazan formed (and consequently the intensity of the color obtained) is directly proportional to the number of living cells present in the culture medium at the time of the test. The lines used are of human origin, and are marketed by the American Type Cell Collection (ATCC), the reference body for the supply of standardized strains.
(§2) The experimental procedure used is essentially that described by C.
(§3) The results are expressed in the form of a percentage inhibition of growth relative to the controls.

T47D = test: MTT cytotoxicity test, T47D (growth inhibition); assay type: cell-based; conditions: Homo sapiens; 1 μg/ml; T47D (breast); relative to the controls; read-out: Percentage inhibition of growth T47
Procedure: as §1, §2, §3

J82 = test: MTT cytotoxicity test, J82 (growth inhibition); assay type: cell-based; conditions: Homo sapiens; 1 μg/ml; J82 (bladder); relative to the controls; read-out: Percentage inhibition of growth J82
Procedure: as §1, §2, §3

T24 = test: MTT cytotoxicity test, T24 (growth inhibition); assay type: cell-based; conditions: Homo sapiens, T-24; 1 μg/ml; T24 (bladder); relative to the controls; read-out: Percentage inhibition of growth T24
Procedure: as §1, §2, §3

tubulin = test: inhibition of polymerization of tubulin into microtubules (Weisenberg); assay type: biochemical; conditions: variations in optical density; read-out: IC50 (concentration which causes 50% inhibition of the polymerization)
Text: This property was confirmed by measuring the inhibition of polymerization of tubulin into microtubules in the presence of the compounds of the invention, according to the method described by R. C. Weisenberg (Science 177, 1196-7, 1972). The results are expressed as a concentration of product which causes 50% inhibition of the polymerization. This phenomenon is readily monitored and quantified via the variations in optical density.

MXT adenocarcinoma = test: in vivo test on MXT adenocarcinoma grafted in B6D2F1 mice; conditions: for activity on the MXT model: in words, MXT adenocarcinoma model
Text: The antitumor properties of the products of the invention were confirmed by in vivo tests, in particular on the model of mammalian MXT adenocarcinoma,which is a solid tumor that is particularly insensitive to anticancer agents [C. S. Watson, D. Medina, J. H. Clark, Cancer Res., 37, 3344 (1977); W. T. Bradher and C. A. Claridge, "Antineoplastic Agents", Wiley-Interscience (1984); T. W. Redding and A. V. Schally, Proc. Natl. Acad. Sci. U.S.A., 80, 1459 (1983)].
In this model, mice of type B6D2F1 are grafted by injection (subcutaneous) of a tumor fragment of about 10 mm^3 originating from an MXT tumor. The test products are administered via the i.p. route starting from the 17th day after the graft.

| Structure (SMILES) | inhibition at 1 µg/mL (MCF-7) [%] | inhibition at 1 µg/mL (T47D) [%] | inhibition at 1 µg/mL (J82) [%] | inhibition at 1 µg/mL (T24) [%] | IC50 (tubulin) [nM] | reduction in tumor size relative to the untreated controls (MXT adenocarcinoma; 9×40 mg/kg, i.p., starting from the 17th day after the graft) [%] | activity on the MXT model (MXT adenocarcinoma) |
| --- | --- | --- | --- | --- | --- | --- | --- |
| CC[C@]12C=CCN3CC[C@@]4(c5cc([C@@]6(C(=O)OC)C[C@@H]7CC(C(C)(F)F)CN(Cc8c6[nH]c6ccccc86)C7)c(OC)cc5N(C)[C@H]4[C@@](O)(C(=O)OC)[C@@H]1OC(C)=O)[C@@H]32 (stereo partly drawn) [Example 1, 19',19'-difluoro 15',20'-dihydrovinorelbine] | 68 | 44 | 45 | 70 | 2500 | 40 |  |
| CC[C@]12C=CCN3CC[C@@]4(c5cc([C@@]6(C(=O)OC)C[C@@H]7CC(C(C)(F)F)CN(CCc8c6[nH]c6ccccc86)C7)c(OC)cc5N(C)[C@H]4[C@@](O)(C(=O)OC)[C@@H]1OC(C)=O)[C@@H]32 (stereo partly drawn) [Example 5, 20'-deoxy 19',19'-difluorovinblastine] | 36 | 27 | 15 | 50 | 8900 |  |  |
| CC[C@]12C=CCN3CC[C@@]4(c5cc([C@@]6(C(=O)OC)C[C@@H]7CC(C(C)(F)F)CN(Cc8c6[nH]c6ccccc86)C7)c(OC)cc5N(C)[C@H]4[C@@](O)(C(=O)OC)[C@@H]1O)[C@@H]32 (stereo partly drawn) [Example 11, 17-deacetyl 19',19'-difluoro 15',20'-dihydrovinorelbine] | 45 | 30 | 60 | 51 | 2900 |  |  |
| CC[C@]12C=CCN3CC[C@@]4(c5cc([C@@]6(C(=O)OC)C[C@@H]7CC(C(C)(F)F)CN(CCc8c6[nH]c6ccccc86)C7)c(OC)cc5N(C)[C@H]4[C@@](O)(C(=O)OC)[C@@H]1O)[C@@H]32 (stereo partly drawn) [Example 12, 17-deacetyl 20'-deoxy 19',19'-difluorovinblastine] | 36 | 27 | 0 | 72 | 4200 |  |  |
| CC[C@]1(O)C[C@@H]2CN(CCc3c([nH]c4ccccc34)[C@@](C(=O)OC)(c3cc4c(cc3OC)N(C)[C@H]3[C@@](O)(C(=O)OC)[C@H](OC(C)=O)[C@]5(CC)C=CCN6CC[C@]43[C@@H]65)C2)C1 [VINBLASTINE, vinblastine, reference compound] |  |  |  |  | […] |  | devoid of activity |
| CCC1=C[C@@H]2CN(C1)Cc1c([nH]c3ccccc13)[C@@](C(=O)OC)(c1cc3c(cc1OC)N(C)[C@H]1[C@@](O)(C(=O)OC)[C@H](OC(C)=O)[C@]4(CC)C=CCN5CC[C@]31[C@@H]54)C2 [VINORELBINE, vinorelbine, reference compound] | 50 | 16 | 14 | 62 |  |  | devoid of activity |
| CC[C@]1(O)C[C@@H]2CN(CCc3c([nH]c4ccccc34)[C@@](C(=O)OC)(c3cc4c(cc3OC)N(C=O)[C@H]3[C@@](O)(C(=O)OC)[C@H](OC(C)=O)[C@]5(CC)C=CCN6CC[C@]43[C@@H]65)C2)C1 [vincristine] |  |  |  |  |  |  | devoid of activity |
| CC[C@]1(O)C[C@@H]2CN(CCc3c([nH]c4ccccc34)[C@@](C(=O)OC)(c3cc4c(cc3OC)N(C)[C@H]3[C@@](O)(C(N)=O)[C@H](O)[C@]5(CC)C=CCN6CC[C@]43[C@@H]65)C2)C1 [vindesine] |  |  |  |  |  |  | devoid of activity |

Source: US5620985A, “Antimitotic binary alkaloid derivatives from catharanthus roseus” (Pierre Fabre Medicament, priority 1993, dated 1997)
